From PubChem BioAssay AID248 (DTP/NCI, 2004)
Inconclusive results and toxic doses are left out. Rule as the data show it: active = T/C of 150% or more; inactive = T/C below 125%.

System: L1210 leukemia ip in BDF1 mice, survival T/C
Test: NCI In Vivo Anticancer Drug Screen. Data for tumor model L1210 Leukemia (intraperitoneal) in B6D2F1 (BDF1) mice
Settings: endpoint: mean survival time, higher = longer survival
Outline: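 Each compound was tested against a transplantable tumor grown in mice. The endpoint was survival, with treated animals benchmarked against vehicle controls as a simple ratio.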

[1] = dose: 100.0 mg/kg/injection, schedule: Q01DX001 (ip), vehicle: saline
[2] = dose: 200.0 mg/kg/injection, schedule: Q01DX001 (ip), vehicle: saline
[3] = dose: 400.0 mg/kg/injection, schedule: Q01DX001 (ip), vehicle: saline
[4] = dose: 100.0 mg/kg/injection, schedule: Q04DX003 (ip), vehicle: Klucel (hydroxypropylcellulose) (HPC)
[5] = dose: 200.0 mg/kg/injection, schedule: Q04DX003 (ip), vehicle: Klucel (hydroxypropylcellulose) (HPC)
[6] = dose: 400.0 mg/kg/injection, schedule: Q04DX003 (ip), vehicle: Klucel (hydroxypropylcellulose) (HPC)
[7] = dose: 75.0 mg/kg/injection, schedule: Q01DX001 (ip), vehicle: carboxymethylcellulose (CMC)
[8] = dose: 150.0 mg/kg/injection, schedule: Q01DX001 (ip), vehicle: carboxymethylcellulose (CMC)
[9] = dose: 6.25 mg/kg/injection, schedule: Q01DX009 (ip), vehicle: saline with Tween-80

Measured: T/C

CC(=O)OC1CCC2(C)C(CCC3C2CCC2(C)C(c4ccc(=O)oc4)C(OC(C)=O)CC32O)C1 (configuration not stated)
inactive: dose: 1.0 mg/kg/injection, schedule: Q01DX001 (sc), vehicle: steriod suspending solution 96 % of control | dose: 2.0 mg/kg/injection, schedule: Q01DX001 (sc), vehicle: steriod suspending solution 98 % of control | dose: 4.0 mg/kg/injection, schedule: Q01DX001 (sc), vehicle: steriod suspending solution 93 % of control | dose: 8.0 mg/kg/injection, schedule: Q01DX001 (sc), vehicle: steriod suspending solution 109 % of control | dose: 12.0 mg/kg/injection, schedule: Q01DX001 (sc), vehicle: steriod suspending solution 98 % of control | dose: 16.0 mg/kg/injection, schedule: Q01DX001 (sc), vehicle: steriod suspending solution 101 % of control | dose: 32.0 mg/kg/injection, schedule: Q01DX001 (sc), vehicle: steriod suspending solution 108 % of control | dose: 64.0 mg/kg/injection, schedule: Q01DX001 (sc), vehicle: steriod suspending solution 103 % of control | dose: 128.0 mg/kg/injection, schedule: Q01DX001 (sc), vehicle: steriod suspending solution 111 % of control

SCCCCN1CCCCC1
inactive: dose: 3.0 mg/kg/injection, schedule: Q01DX001 (ip), vehicle: carboxymethylcellulose (CMC) 102 % of control | dose: 6.0 mg/kg/injection, schedule: Q01DX001 (ip), vehicle: carboxymethylcellulose (CMC) 100 % of control | dose: 12.0 mg/kg/injection, schedule: Q01DX001 (ip), vehicle: carboxymethylcellulose (CMC) 107 % of control | dose: 25.0 mg/kg/injection, schedule: Q01DX001 (ip), vehicle: carboxymethylcellulose (CMC) 95 % of control

O=c1[nH]c(=O)c2[nH]c(Br)c(Br)c2[nH]1
inactive: [1] 93 % of control | [2] 96 % of control | [3] 93 % of control

C[N+](C)(C)c1ccccn1
inactive: dose: 75.0 mg/kg/injection, schedule: Q01DX001 (ip), vehicle: saline 102 % of control

CC(C)CC(N)C(=O)NC1(C(=O)O)C2CC3CC(C2)CC1C3 (configuration not stated)
inactive: dose: 17.5 mg/kg/injection, schedule: Q01DX009 (ip), vehicle: Klucel (hydroxypropylcellulose) (HPC) 101 % of control | dose: 35.0 mg/kg/injection, schedule: Q01DX009 (ip), vehicle: Klucel (hydroxypropylcellulose) (HPC) 96 % of control | dose: 70.0 mg/kg/injection, schedule: Q01DX009 (ip), vehicle: Klucel (hydroxypropylcellulose) (HPC) 97 % of control | dose: 75.0 mg/kg/injection, schedule: Q01DX009 (ip), vehicle: Klucel (hydroxypropylcellulose) (HPC) 103 % of control | dose: 150.0 mg/kg/injection, schedule: Q01DX009 (ip), vehicle: Klucel (hydroxypropylcellulose) (HPC) 97 % of control | dose: 300.0 mg/kg/injection, schedule: Q01DX009 (ip), vehicle: Klucel (hydroxypropylcellulose) (HPC) 92 % of control

CN(C)c1ccc(/C=C(\C#N)c2ccccc2)cc1
inactive: dose: 100.0 mg/kg/injection, schedule: Q01DX001 (ip), vehicle: saline with Tween-80 87 % of control | dose: 200.0 mg/kg/injection, schedule: Q01DX001 (ip), vehicle: saline with Tween-80 88 % of control

CN(CCCl)C(=O)Nc1ccc(Cl)cc1
inactive: [4] 94 % of control | [5] 94 % of control | [6] 90 % of control

CC1CC=CC(N2C(=O)c3ccccc3C2=O)C1 (configuration not stated)
inactive: dose: 200.0 mg/kg/injection, schedule: Q01DX001 (ip), vehicle: carboxymethylcellulose (CMC) 91 % of control | dose: 400.0 mg/kg/injection, schedule: Q01DX001 (ip), vehicle: carboxymethylcellulose (CMC) 93 % of control

CCCCCCn1c2ccccc2c2cc3cnccc3c(C)c21
inactive: dose: 37.5 mg/kg/injection, schedule: Q04DX003 (ip), vehicle: Klucel (hydroxypropylcellulose) (HPC) 97 % of control | dose: 75.0 mg/kg/injection, schedule: Q04DX003 (ip), vehicle: Klucel (hydroxypropylcellulose) (HPC) 97 % of control | dose: 150.0 mg/kg/injection, schedule: Q04DX003 (ip), vehicle: Klucel (hydroxypropylcellulose) (HPC) 102 % of control | dose: 300.0 mg/kg/injection, schedule: Q04DX003 (ip), vehicle: Klucel (hydroxypropylcellulose) (HPC) 104 % of control

O=C1C=C(Nc2ccc(O)cc2)c2ccccc2C1=O
inactive: dose: 3.12 mg/kg/injection, schedule: Q01DX009 (ip), vehicle: saline 107 % of control | dose: 6.25 mg/kg/injection, schedule: Q01DX009 (ip), vehicle: saline 102 % of control | dose: 12.5 mg/kg/injection, schedule: Q01DX009 (ip), vehicle: saline 103 % of control | dose: 25.0 mg/kg/injection, schedule: Q01DX009 (ip), vehicle: saline 91 % of control | dose: 50.0 mg/kg/injection, schedule: Q04DX003 (ip), vehicle: saline 103 % of control | [7] 93 % of control | dose: 100.0 mg/kg/injection, schedule: Q04DX003 (ip), vehicle: saline 95 % of control | [8] 100 % of control | dose: 300.0 mg/kg/injection, schedule: Q01DX001 (ip), vehicle: carboxymethylcellulose (CMC) 90 % of control

O=C(COc1ccc(Cl)cc1)Nc1ccc(S(=O)(=O)O)c2ccccc12
inactive: dose: 100.0 mg/kg/injection, schedule: Q04DX002 (ip), vehicle: Klucel (hydroxypropylcellulose) (HPC) 98 % of control | dose: 200.0 mg/kg/injection, schedule: Q04DX002 (ip), vehicle: Klucel (hydroxypropylcellulose) (HPC) 98 % of control | dose: 400.0 mg/kg/injection, schedule: Q04DX002 (ip), vehicle: Klucel (hydroxypropylcellulose) (HPC) 98 % of control

NC(=O)c1cccn1-c1cccc2c(-n3cccc3C(N)=O)cccc12
inactive: dose: 50.0 mg/kg/injection, schedule: Q04DX002 (ip), vehicle: saline with Tween-80 89 % of control

C[CH2][Sn]([CH2]C)([CH2]C)[S]Cc1ccccc1
inactive: dose: 1.56 mg/kg/injection, schedule: Q01DX009 (ip), vehicle: saline with Tween-80 97 % of control | dose: 3.13 mg/kg/injection, schedule: Q01DX009 (ip), vehicle: saline with Tween-80 95 % of control | [9] 87 % of control

Cc1c(Cl)c(Cl)c(C)c(Cl)c1Cl
inactive: dose: 100.0 mg/kg/injection, schedule: Q01DX009 (ip), vehicle: Klucel (hydroxypropylcellulose) (HPC) 86 % of control | [4] 95 % of control | dose: 200.0 mg/kg/injection, schedule: Q01DX009 (ip), vehicle: Klucel (hydroxypropylcellulose) (HPC) 89 % of control | [5] 101 % of control | dose: 400.0 mg/kg/injection, schedule: Q01DX009 (ip), vehicle: Klucel (hydroxypropylcellulose) (HPC) 87 % of control | [6] 93 % of control

CCOC(=O)C12CCC(C1=O)C(C)(O)CC2 (configuration not stated)
inactive: dose: 100.0 mg/kg/injection, schedule: Q04DX003 (ip), vehicle: saline with Tween-80 108 % of control | dose: 200.0 mg/kg/injection, schedule: Q04DX003 (ip), vehicle: saline with Tween-80 97 % of control

CS(=O)(=O)/C=C(\I)c1ccccc1
inactive: [1] 97 % of control | [2] 97 % of control | [3] 93 % of control

O=C1C(=C(C(F)(F)F)C(F)(F)F)C2CCC1C2 (configuration not stated)
inactive: [9] 93 % of control | dose: 6.25 mg/kg/injection, schedule: Q04DX003 (ip), vehicle: saline with Tween-80 114 % of control | dose: 12.5 mg/kg/injection, schedule: Q01DX009 (ip), vehicle: saline with Tween-80 93 % of control | dose: 12.5 mg/kg/injection, schedule: Q04DX003 (ip), vehicle: saline with Tween-80 92 % of control | dose: 25.0 mg/kg/injection, schedule: Q04DX003 (ip), vehicle: saline with Tween-80 96 % of control

COC(=O)C1CC(=O)c2c(O)ccc(O)c2C1 (configuration not stated)
inactive: dose: 12.5 mg/kg/injection, schedule: Q04DX003 (ip), vehicle: Klucel (hydroxypropylcellulose) (HPC) 96 % of control | dose: 25.0 mg/kg/injection, schedule: Q04DX003 (ip), vehicle: Klucel (hydroxypropylcellulose) (HPC) 104 % of control | dose: 50.0 mg/kg/injection, schedule: Q04DX003 (ip), vehicle: Klucel (hydroxypropylcellulose) (HPC) 98 % of control | dose: 100.0 mg/kg/injection, schedule: Q01DX001 (ip), vehicle: Klucel (hydroxypropylcellulose) (HPC) 92 % of control | [4] 100 % of control | dose: 200.0 mg/kg/injection, schedule: Q01DX001 (ip), vehicle: Klucel (hydroxypropylcellulose) (HPC) 92 % of control | [5] 101 % of control | dose: 400.0 mg/kg/injection, schedule: Q01DX001 (ip), vehicle: Klucel (hydroxypropylcellulose) (HPC) 90 % of control | [6] 106 % of control

CCC(C)C(C1=C(O)c2ccccc2C(=O)C1=O)C1=C(O)c2ccccc2C(=O)C1=O (configuration not stated)
inactive: [7] 97 % of control | [8] 104 % of control
